“And” between values parts separate entries of the source, which are not always exact repeats. Equal entries are not always repeated.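 Step 1: Grow cells in 96-well plates. Step 2: Expose to compound for 48 hours at 5 concentrations. Step 3: Interpolate endpoints linearly; if unreached, use highest concentration. Here, GI50 denotes the concentration required for 50% inhibition of growth. The concentration for full growth arrest is given as TGI.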

Assay in all cases: inhibition of tumour cell growth, NCI panel, 48 h
For experiment [1], the system named is A549 NSCLC.
In experiment [2] the test system is ACHN renal.
Experiment [3] concerns DLD-1 colon.
The test system of experiment [4] is DMS 114 small cell lung.
In experiment [5] the test system is DU-145 prostate.
The test system of experiment [6] is EKVX NSCLC.
Experiment [7] deals with NCI-H226 lung.
Experiment [8] concerns NCI-H522 lung.
In experiment [9] the test system is SNB-78 CNS.
In experiment [10] the test system is SW-620 colon.

Regarding `C[C@H]1CCC/C=C/C2CC(OC(=O)CN(C)C)CC2C(OC(=O)CN(C)C)/C=C/C(=O)O1` (stereo not given in full), the GI50 in [1] is 0.68 µM; in experiment [2] it was 0.398 µM; in experiment [3] it was 0.443 µM; in experiment [4], 0.479 µM; in experiment [5] it was 0.615 µM; in experiment [6] it was 0.558 µM. The GI50 in experiment [7] was 0.133 µM; in experiment [8], 0.658 µM; in experiment [9] it was 0.227 µM; in [10], 0.318 µM. For the same compound, the TGI was greater than 100 µM in experiment [1]; 11.9 µM in experiment [2]; greater than 37.1 µM in experiment [3]; greater than 30.2 µM in experiment [4]; greater than 100 µM in experiment [5]; greater than 87.8 µM in experiment [6]. Further, the TGI is 0.44 µM in experiment [7], 2.83 µM in experiment [8], greater than 100 µM in experiment [9] and 1.95 µM in experiment [10].
For the compound `O=C1c2c(O)cccc2C(C(=O)CCCCCC(=O)C2c3cccc(O)c3C(=O)c3c(O)cccc32)c2cccc(O)c21`, the GI50 in experiment [1] was 6.6 µM; in experiment [2], 9.48 µM; in experiment [3], 7.67 µM; in experiment [4], 3.16 µM; in experiment [6], 5.64 µM; in experiment [7] it was 4.97 µM. Besides, the GI50 was 6.72 µM in experiment [8], 7.55 µM in experiment [9] and 5.44 µM in experiment [10]. Further, the TGI was 3.68 µM and 14.5 µM in experiment [1]; 5.71 µM and 16.6 µM in experiment [2]; 8.88 µM and 16.7 µM in experiment [3]; 1.29 µM and 9.22 µM in experiment [4]; 3.68 µM and 19.5 µM in [6]; 7.29 µM and 11.6 µM in experiment [7]. For the same compound, the TGI in [10] is 25 µM and 14.5 µM.
For `CC[C@@]1(O)C(=O)OCc2c1cc1n(c2=O)Cc2cc3cc(Cl)ccc3nc2-1`, the GI50 in experiment [1] is 0.00656 µM; in experiment [2] it was 0.00228 µM; in experiment [3], 0.108 µM and 0.346 µM; in experiment [4], less than 0.001 µM; in experiment [5], 0.00491 µM; in experiment [6] it was 0.282 µM and 0.302 µM. Further, the GI50 in experiment [7] was 0.00345 µM; in [8], 0.00946 µM and 0.022 µM; in experiment [9], 0.0711 µM and 0.0581 µM. Moreover, the TGI in [1] is 1.42 µM and 1.21 µM; in [2] it was 0.0107 µM; in [3], greater than 100 µM; in [6], 5.73 µM and 4.9 µM; in experiment [7], 0.108 µM and 0.117 µM; in experiment [8] it was 0.298 µM and 0.843 µM. Moreover, the TGI in experiment [10] was 2.37 µM and 5.23 µM.
As for `COc1ccc(C(c2ccccc2C(=O)O)c2ccc(OC)c3ccccc23)c2ccccc12`, the TGI in experiment [1] came out at 31 µM; in experiment [2], 23.5 µM; in experiment [3] it was 22.2 µM; in experiment [4] it was 21.1 µM; in [6], 49.8 µM; in experiment [7], 63.5 µM. The TGI in experiment [8] is 32.7 µM; in [9], 50.4 µM; in experiment [10], 44.4 µM.
In the case of `CC1=C(C(=O)Nc2cccc(Cl)c2)C(c2ccccc2O)C(C(=O)Nc2cccc(Cl)c2)=C(C)N1`, the TGI in [1] was 43.8 µM; in experiment [2], 53.8 µM; in experiment [3] it was 33 µM; in experiment [4], 54.6 µM; in experiment [6], 47.6 µM; in [7] it was 33.1 µM. The figures for the TGI in experiment [8], in experiment [9] and in experiment [10] were 34.1 µM, 57.2 µM and 35.8 µM, respectively.
For the compound `N#CCCN(CCC#N)c1ccc(/C=C(/NC(=O)c2cc([N+](=O)[O-])ccc2Cl)C(=O)N=[N+]=[N-])cc1`, the TGI in experiment [1], in experiment [2], in experiment [3], in [4], in [6] and in experiment [7] was greater than 100 µM each time. Moreover, the TGI in [8], in [9] and in experiment [10] was greater than 100 µM throughout.
Turning to `CC(Oc1cc2oc(=O)cc(-c3ccccc3)c2cc1Cl)C(=O)O` (stereo not given), the TGI in experiment [1], in experiment [2], in experiment [3], in experiment [4], in [6] and in [7] was greater than 100 µM throughout. The TGI in [8], in [9] and in experiment [10] was greater than 100 µM in each case.
`Cc1cccc(C(C)(C)C)c1NC(=O)C(C#N)C1=C(Cl)C(=O)c2ccccc2C1=O` (stereo not given): the TGI is 46.7 µM in [1]; 27.6 µM in [2]; 33.4 µM in experiment [3]; 38.3 µM in experiment [4]; 36.5 µM in experiment [5]; 17.1 µM in experiment [6]. In addition, the TGI in experiment [7] was found to be 21.2 µM; in experiment [8], 26.9 µM; in experiment [9], 33.1 µM; in experiment [10] it was 36.3 µM.
For the compound `O=C1OC(CC(=O)c2ccc(F)cc2)C(Cl)=C1Cl` (stereo not given), the TGI is greater than 100 µM in experiment [1]; greater than 100 µM in [2]; 47.4 µM in experiment [3]; greater than 100 µM in experiment [4]; greater than 100 µM in experiment [6]; 33.8 µM in [7]. The TGI in experiment [8] is 34.9 µM; in experiment [9] it was greater than 100 µM; in experiment [10], 46.2 µM.
Turning to `O=C(CCC(=O)Nc1ccccc1C(F)(F)F)N/N=C1\C(=N\NC(=O)CCC(=O)Nc2ccccc2C(F)(F)F)C(c2ccc3c(c2)OCO3)Oc2ccccc21` (stereo not given), the TGI in [1] was greater than 100 µM; in [2] it was greater than 100 µM; in experiment [3], greater than 100 µM; in experiment [4], greater than 22.3 µM; in experiment [6] it was greater than 100 µM; in experiment [7] it was greater than 100 µM. The values for the TGI in experiment [8], in [9] and in experiment [10] were greater than 72.8 µM, greater than 100 µM and greater than 100 µM, respectively.
On to `C/C(=N\Nc1ccccc1)c1sc(-c2nc(C)c(/C(C)=N/Nc3ccccc3)s2)nc1C`, for which the TGI in experiment [1] is greater than 35.8 µM; in experiment [2], greater than 32 µM; in experiment [3], greater than 100 µM; in experiment [4] it was greater than 30.8 µM; in experiment [6], greater than 100 µM; in experiment [7] it was greater than 95.7 µM. The TGI is 48.3 µM in experiment [8], greater than 100 µM in experiment [9] and greater than 35.2 µM in [10].

The record behind these values is PubChem BioAssay (NCI).
